Test results published in patent US9155760B2, “Method of prophylaxis of bacterial vaginosis” (STARPHARMA PTY LIMITED, priority 2011, dated 2015).
Values after ≈ are worked out from the molar mass of the structure shown. Where two headings read alike, the source gives them in different places.

Experiments:
Fusobacterium nucleatum = experiment: Agar dilution MIC assay (anaerobes); type: cell-based; conditions: Micromyx Number 1269, 35° C., 48 hours, anaerobic
Mobiluncus. curtisii = experiment: Agar dilution MIC assay (anaerobes); type: cell-based; conditions: Micromyx Number 4145, 35° C., 48 hours, anaerobic
Gardnerella vaginalis = experiment: Agar dilution MIC assay (anaerobes); type: cell-based; conditions: Micromyx Number 4153, 35° C., 48 hours, anaerobic
Lactobacillus plantarum = experiment: Agar dilution MIC assay (anaerobes); type: cell-based; conditions: Micromyx Number 2791, 35° C., 48 hours, anaerobic
Bacteroides ureolyticus = experiment: Agar dilution MIC assay (anaerobes); type: cell-based; conditions: Micromyx Number 4150, 35° C., 48 hours, anaerobic
[1] = system: Bacteroides fragilis 0123 (ATCC 25285); experiment: Agar dilution MIC assay (anaerobes), quality control organism; type: cell-based; conditions: 48 hours, anaerobic
Lactobacillus jensenii = experiment: Agar dilution MIC assay (anaerobes); type: cell-based; conditions: Micromyx Number 4149, 35° C., 48 hours, anaerobic
Lactobacillus gasseri = experiment: Agar dilution MIC assay (anaerobes); type: cell-based; conditions: Micromyx Number 4148, 35° C., 48 hours, anaerobic
Porphyromonas levii = experiment: Agar dilution MIC assay (anaerobes); type: cell-based; conditions: Micromyx Number 3003, 35° C., 48 hours, anaerobic
[2] = system: Lactobacillus acidophilus; experiment: Agar dilution MIC assay (anaerobes); type: cell-based; conditions: Micromyx Number 0681, 35° C., 48 hours, anaerobic
Prevotella bivia = experiment: Agar dilution MIC assay (anaerobes); type: cell-based; conditions: Micromyx Number 3447, 35° C., 48 hours, anaerobic
[3] = system: Porphyromonas asaccharolytica; experiment: Agar dilution MIC assay (anaerobes); type: cell-based; conditions: Micromyx Number 3004, 35° C., 48 hours, anaerobic
Prevotella intermedia = experiment: Agar dilution MIC assay (anaerobes); type: cell-based; conditions: Micromyx Number 3002, 35° C., 48 hours, anaerobic
[4] = system: Prevotella melaninogenica; experiment: Agar dilution MIC assay (anaerobes); type: cell-based; conditions: Micromyx Number 3005, 35° C., 48 hours, anaerobic
Anaerococcus tetradius = experiment: Agar dilution MIC assay (anaerobes); type: cell-based; conditions: Micromyx Number 4152, 35° C., 48 hours, anaerobic
B. ovatus 3508 = experiment: Agar dilution MIC assay (anaerobes); type: cell-based, Bacteroides ovatus; conditions: Micromyx Number 3508, 35° C., 48 hours, anaerobic
Lactobacillus crispatus = experiment: Agar dilution MIC assay (anaerobes); type: cell-based; conditions: Micromyx Number 4147, 35° C., 48 hours, anaerobic
Bacteroides ovatus 3503 = experiment: Agar dilution MIC assay (anaerobes); type: cell-based; conditions: Micromyx Number 3503, 35° C., 48 hours, anaerobic
Mobiluncus mulieris = experiment: Agar dilution MIC assay (anaerobes); type: cell-based; conditions: Micromyx Number 4146, 35° C., 48 hours, anaerobic
[5] = system: Peptostreptococcus anaerobius; experiment: Agar dilution MIC assay (anaerobes); type: cell-based; conditions: Micromyx Number 3526, 35° C., 48 hours, anaerobic
Anaerococcus prevotii = experiment: Agar dilution MIC assay (anaerobes); type: cell-based; conditions: Micromyx Number 4151, 35° C., 48 hours, anaerobic
[6] = system: Bacteroides fragilis 3374; experiment: Agar dilution MIC assay (anaerobes); type: cell-based; conditions: Micromyx Number 3374, 35° C., 48 hours, anaerobic
Lactobacillus casei = experiment: Agar dilution MIC assay (anaerobes); type: cell-based; conditions: Micromyx Number 1722, 35° C., 48 hours, anaerobic
[7] = Bacteroides ovatus, read-out: MIC

`C[C@@H](O)[C@H]1C(=O)N2C(C(=O)O)=C(SCCN=CN)C[C@H]12` [Imipenem, reference compound] was tested, and the MIC (Fusobacterium nucleatum; Fusobacterium nucleatum, read-out: MIC) was ≤ 0.03 µg/mL, the MIC (Mobiluncus. curtisii; Mobiluncus curtisii, read-out: MIC) was ≤ 0.03 µg/mL and the MIC (Gardnerella vaginalis; Gardnerella vaginalis, read-out: MIC) was 0.12 µg/mL (≈ 0.401 µM). It also gave an MIC (Lactobacillus plantarum; Lactiplantibacillus plantarum, read-out: MIC) of 2 µg/mL (≈ 6.68 µM), an MIC (Bacteroides ureolyticus; Campylobacter ureolyticus, read-out: MIC) of 0.25 µg/mL (≈ 0.835 µM) and an MIC ([1]; Bacteroides fragilis, ATCC25285, Micromyx Number 0123, 35° C., read-out: MIC) of 0.12 µg/mL (≈ 0.401 µM). The MIC (Lactobacillus jensenii; Lactobacillus jensenii, read-out: MIC) was 0.25 µg/mL (≈ 0.835 µM), the MIC (Lactobacillus gasseri; Lactobacillus gasseri, read-out: MIC) was 0.25 µg/mL (≈ 0.835 µM) and the MIC (Porphyromonas levii; Porphyromonas levii, read-out: MIC) was 0.06 µg/mL (≈ 0.2 µM). For the same compound, the MIC ([2]; Lactobacillus acidophilus, read-out: MIC) was 0.12 µg/mL (≈ 0.401 µM), the MIC (Prevotella bivia; Prevotella bivia, read-out: MIC) was ≤ 0.03 µg/mL and the MIC ([3]; Porphyromonas asaccharolytica, read-out: MIC) was ≤ 0.03 µg/mL. For the same compound, the MIC (Prevotella intermedia; Prevotella intermedia, read-out: MIC) was ≤ 0.03 µg/mL, the MIC ([4]; Prevotella melaninogenica, read-out: MIC) was ≤ 0.03 µg/mL and the MIC (Anaerococcus tetradius; Anaerococcus tetradius, read-out: MIC) was ≤ 0.03 µg/mL. The MIC (B. ovatus 3508; [7]) was ≤ 0.03 µg/mL, the MIC (Lactobacillus crispatus; Lactobacillus crispatus, read-out: MIC) was 0.12 µg/mL (≈ 0.401 µM) and the MIC (Bacteroides ovatus 3503; [7]) was 0.25 µg/mL (≈ 0.835 µM). For the same compound, the MIC (Mobiluncus mulieris; Mobiluncus mulieris, read-out: MIC) was ≤ 0.03 µg/mL, the MIC ([5]; Peptostreptococcus anaerobius, read-out: MIC) was ≤ 0.03 µg/mL and the MIC (Anaerococcus prevotii; Anaerococcus prevotii, read-out: MIC) was 0.06 µg/mL (≈ 0.2 µM). The MIC ([6]; Bacteroides fragilis, read-out: MIC) was 2 µg/mL (≈ 6.68 µM) and the MIC (Lactobacillus casei; Lacticaseibacillus casei, read-out: MIC) was 0.5 µg/mL (≈ 1.67 µM).
With `CC(=O)COc1cc(S(=O)(=O)O)cc2cc(S(=O)(=O)O)ccc12` [SPL7013] the MIC (Fusobacterium nucleatum) was >30000 µg/mL, the MIC (Mobiluncus. curtisii) was >30000 µg/mL and the MIC (Gardnerella vaginalis) was 5000 µg/mL (≈ 13900 µM). The MIC (Lactobacillus plantarum) was >30000 µg/mL, the MIC (Bacteroides ureolyticus) was >30000 µg/mL and the MIC ([1]; Micromyx Number 0123, 35° C.) was >30000 µg/mL. For the same compound, the MIC (Lactobacillus jensenii) was >30000 µg/mL, the MIC (Lactobacillus gasseri) was >30000 µg/mL and the MIC (Porphyromonas levii) was >30000 µg/mL. For the same compound, the MIC [2] was >30000 µg/mL, the MIC (Prevotella bivia) was 30000 µg/mL (≈ 83200 µM) and the MIC [3] was >30000 µg/mL. The MIC (Prevotella intermedia) was >30000 µg/mL, the MIC [4] was >30000 µg/mL and the MIC (Anaerococcus tetradius) was >30000 µg/mL. For the same compound, the MIC (B. ovatus 3508) was 30000 µg/mL (≈ 83200 µM), the MIC (Lactobacillus crispatus) was 10000 µg/mL (≈ 27700 µM) and the MIC (Bacteroides ovatus 3503) was >30000 µg/mL. For the same compound, the MIC (Mobiluncus mulieris) was >30000 µg/mL, the MIC [5] was >30000 µg/mL and the MIC (Anaerococcus prevotii) was >30000 µg/mL. For the same compound, the MIC [6] was >30000 µg/mL and the MIC (Lactobacillus casei) was >30000 µg/mL.
